Holding throughout (type): biochemical
The target of assay [1] is T1, VhAasS (Vibrio harveyi, UniProt Q00IB3). In words: UREA-PAGE and mass spectrometry of ACP loading. Particulars: holo-E. coli ACP as acceptor, ATP, MgCl2, pH 8, 37 °C overnight.
The target of another assay is T2, Slr1609 (Synechocystis sp. PCC 6803, UniProt P73004).
T2 sequence (P73004 1-696): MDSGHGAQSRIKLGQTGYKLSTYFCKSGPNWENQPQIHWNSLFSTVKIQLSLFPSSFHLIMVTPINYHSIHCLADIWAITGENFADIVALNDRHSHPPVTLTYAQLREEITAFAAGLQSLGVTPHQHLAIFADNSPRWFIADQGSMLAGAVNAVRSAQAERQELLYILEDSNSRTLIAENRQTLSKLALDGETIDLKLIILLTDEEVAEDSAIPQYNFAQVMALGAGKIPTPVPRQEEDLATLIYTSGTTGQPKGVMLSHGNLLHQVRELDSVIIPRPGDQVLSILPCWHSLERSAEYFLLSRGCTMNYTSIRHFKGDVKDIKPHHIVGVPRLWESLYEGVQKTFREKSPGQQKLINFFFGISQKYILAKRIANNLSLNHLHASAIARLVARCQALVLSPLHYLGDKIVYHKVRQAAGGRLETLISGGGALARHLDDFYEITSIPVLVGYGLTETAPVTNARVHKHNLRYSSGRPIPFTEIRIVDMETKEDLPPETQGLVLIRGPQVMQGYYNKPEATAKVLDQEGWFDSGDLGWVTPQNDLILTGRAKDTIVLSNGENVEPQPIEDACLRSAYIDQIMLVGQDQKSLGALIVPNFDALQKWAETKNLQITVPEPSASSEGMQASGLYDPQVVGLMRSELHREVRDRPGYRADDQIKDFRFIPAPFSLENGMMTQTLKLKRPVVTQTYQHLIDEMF
The experiment in a line: coupled NADH assay at […] nm. Particulars: decanoic acid, ATP, MgCl2, pH 8 100 mM Tris.

Another assay concerns the target T3, TTHA0604 (Thermus thermophilus, UniProt Q5SKN9).
T3 sequence (Q5SKN9 1-541): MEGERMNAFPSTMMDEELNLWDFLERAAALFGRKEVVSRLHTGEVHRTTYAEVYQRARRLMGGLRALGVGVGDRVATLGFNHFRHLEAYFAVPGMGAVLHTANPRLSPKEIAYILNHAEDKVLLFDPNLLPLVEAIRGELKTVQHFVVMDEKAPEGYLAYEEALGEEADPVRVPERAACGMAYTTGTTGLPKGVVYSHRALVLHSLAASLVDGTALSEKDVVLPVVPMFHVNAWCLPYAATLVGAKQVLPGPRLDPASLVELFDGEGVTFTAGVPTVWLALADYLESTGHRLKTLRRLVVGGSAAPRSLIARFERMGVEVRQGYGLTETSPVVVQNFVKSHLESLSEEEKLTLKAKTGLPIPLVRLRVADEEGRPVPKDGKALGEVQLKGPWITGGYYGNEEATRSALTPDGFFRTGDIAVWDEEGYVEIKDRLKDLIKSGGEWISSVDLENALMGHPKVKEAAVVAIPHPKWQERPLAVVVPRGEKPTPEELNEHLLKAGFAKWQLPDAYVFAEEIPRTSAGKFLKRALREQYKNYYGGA
The experiment in a line: coupled NADH assay at […] nm. The settings on record: decanoic acid, ATP, MgCl2, pH 8 100 mM Tris.

Assay [2] deals with T1, VhAasS. The experiment in a line: UREA-PAGE of ACP loading. Particulars: holo-E. coli AcpP as acceptor, ATP, MgCl2, DTT, 37 °C overnight.

With `O=C(O)CCCCC(=O)c1ccccc1` [5-benzoylvaleric acid], on VhAasS [1], the “UREA-PAGE and mass spectrometry of ACP loading” value is listed as “functionalized fatty acids”.

On to `CC(C)(COP(=O)(O)OP(=O)(O)OC[C@H]1O[C@@H](n2cnc3c(N)ncnc32)[C@H](O)[C@@H]1OP(=O)(O)O)[C@@H](O)C(=O)NCCC(=O)NCCS` [coenzyme A], for which the “coupled NADH assay at 340 nm; DTNB assay of CoA consumption; HPLC-MS” value on Slr1609 was “both TTHA0604 and Slr1609 show acyl-CoA ligase activity”; at TTHA0604, “both TTHA0604 and Slr1609 show acyl-CoA ligase activity”. On to `CCCCCCCCCC(=O)O` [decanoic acid], for which, at VhAasS [2], the “UREA-PAGE of ACP loading” value was “VhAasS showed increased loading over Slr1609, TTHA0604, and AAE15”.
